Measurements reported in patent publication US11247993B2, “Pyridone derivative, composition and use as antiviral drug thereof” (priority 2018, dated 2022).
pEC50: −log10 of the molar value.

Key:
[1] = system: influenza virus A/PR/8/34 (H1N1); assay: organism not typed; assay type: cell-based; conditions: MDCK cells, A/PR/8/34 (H1N1), 5 days, CCK8; read-out: EC50
MDCK cells = assay: in vitro; assay type: cell-based
Description: Method for cytotoxicity study: The cytotoxicity assay and antiviral activity assay of the compounds were performed in parallel, except for the absence of virus, other experimental conditions were consistent with the antiviral activity assay. After 5 days of culture, the cell viability was measured using the cell viability detection kit CCK8. Raw data were used for calculating compound cytotoxicity (CC50) (see Table 1 for results).

In the case of `O=C1c2c(O)c(=O)ccn2N([C@@H]2c3ccccc3SCc3c2ccc(F)c3F)[C@@H]2COCCN12` [Baloxavir acid, reference compound], the pEC50 [1] was 8.85 and the CC50 (MDCK cells) was > 1000 nM.
